{
  "source": "patent US20130053430A1",
  "about": "“MODULATION OF CETP EXPRESSION” (Isis Pharmaceuticals, Inc., priority 2010, published 2013)",
  "key": {"CETP activity": {"test_system": "CETP activity", "assay": "CETP activity assay kit, dose response (Example 9)", "assay_type": "in vivo, human", "details": "huCETP transgenic mice, Western diet, s.c. 6 weeks", "protocol": "(§1) Another group received subcutaneous injections of control oligonucleotide ISIS 141923 at a dose of 50 mg/kg/week for 6 weeks. One group of mice received subcutaneous injections of PBS for 6 weeks. The PBS-injected group served as the control group to which treatment groups were compared.\nCETP activity levels were measured using a CETP activity assay kit (Roar Biomedical Inc.)."}, "SR-B1": {"test_system": "SR-B1", "assay": "Liver SR-B1 mRNA expression (Example 9)", "assay_type": "in vivo, mice", "details": "s.c. 6 weeks; for Percent inhibition of liver mRNA expression, SR-B1: percentage increase or decrease compared to PBS control", "protocol": "as §1\nLiver RNA was isolated for real-time PCR analysis of ABCA1, ApoAI, and SR-B1. ATP-binding cassette transporter ABCA1 (member 1 of human transporter sub-family ABCA), also known as the cholesterol efflux regulatory protein (CERP) is a protein which in humans is encoded by the ABCA1 gene (Luciani, M. F. et al., Genomics. 1994. 21: 150-9). This transporter is a major regulator of cellular cholesterol and phospholipid homeostasis. Apolipoprotein A-I is a protein that in humans is encoded by the APOA1 gene (Breslow, J. L. et al., Proc. Natl. Acad. Sci. USA 1982. 79: 6861-5). Apolipoprotein A-I is the major protein component of HDL in plasma. The protein promotes cholesterol efflux from tissues to the liver for excretion. Scavenger receptor class B, type I (SR-BI) is an integral membrane protein found in numerous cell types/tissues, including the liver and adrenal (Acton, S. L. et al., J. Biol. Chem. 1994. 269: 21003-21009). It is best known for its role in facilitating the uptake of cholesteryl esters from high-density lipoproteins in the liver. Therefore, all three genes have a role in HDL regulation.\nThe primer probe set RTS1204 (forward sequence […], designated herein as SEQ ID NO: 122, reverse sequence […], designated herein as SEQ ID NO: 123, probe sequence AGGCCCAGACCTGTAAAGGCGAAGX, with X a fluorophore, designated herein as SEQ ID NO: 124) was used to measure abca1 levels. The primer probe set RTS14737 (forward sequence […], designated herein as SEQ ID NO: 125, reverse sequence […], designated herein as SEQ ID NO: 126, probe sequence CTGCAGGAACGGCTGGGCCCX, with X a fluorophore, designated herein as SEQ ID NO: 127) was used to measure apoA1 levels. The primer probe set mSRB-1 (forward sequence […], designated herein as SEQ ID NO: 128, reverse sequence ATGCGACTTGTCAGGCTGG, designated herein as SEQ ID NO: 129, probe sequence CGTGGAGAACCGCAGCCTCCATTX, with X a fluorophore, designated herein as SEQ ID NO: 130) was used to measure sr-b1 levels. The results are presented in Table 44 as percentage increase or decrease in the respective expression levels compared to the PBS control. Both primer probe sets produced similar results. The RNA expression levels were normalized to murine Cyclophilin. Treatment with ISIS 349517 caused an increase in ApoA1 and SR-B1 levels."}, "CETP mRNA": {"test_system": "CETP mRNA", "assay": "Liver CETP mRNA in huApoB/huCETP/mLDLr mouse model for cardiovascular disease (Example 7)", "assay_type": "in vivo, human", "details": "huApoB+/−huCETP+/−mLDLr+/− mice (Groups B-E); ASO 25 mg/kg s.c. twice per week, nicotinic acid 2 g/kg/day s.c. + 1% in diet, 6 weeks; relative to PBS control (Group A)", "source_text": "The saline-injected group served as the control group to which oligonucleotide-treated groups were compared. […] This group served a negative control for the effects of the antisense oligonucleotides against CETP. The groups are further described in Table 27, and are designated letters A-F, by which they will be referred from henceforth."}, "human CETP mRNA": {"test_system": "human CETP mRNA", "assay": "Antisense inhibition of human CETP mRNA in SW872 liposarcoma cells (Example 1)", "assay_type": "cell-based", "details": "150 nM antisense oligonucleotide, lipofectin, ~24 hours, relative to untreated control cells", "how_it_was_run": "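SW872 cells transfected (lipofectin) with 150 nM 5-10-5 MOE gapmer (phosphorothioate, 5-methylcytosine). After about 24 h, CETP mRNA measured by qRT-PCR, normalized to GAPDH; values are % inhibition versus untreated cells.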"}, "CETP protein": {"test_system": "CETP protein", "assay": "Plasma CETP protein by ELISA, normal or cholesterol-enriched chow (Example 6)", "assay_type": "in vivo, human", "details": "50 mg/kg s.c. twice per week", "protocol": "The normal chow-fed mice were divided into three treatment groups. The cholesterol-enriched chow-fed mice were divided into three treatment groups. […] One chow-fed group and one cholesterol-enriched chow-fed group received subcutaneous injections of saline twice weekly for 6 weeks. The saline-injected groups served as the control groups to which the corresponding oligonucleotide-treated groups were compared.\nPlasma levels of CETP protein were measured by ELISA (Alpco, N.H.). […] The results are expressed as percentage inhibition compared to the PBS control."}},
  "note": "e = 2'-O-(2-methoxyethyl) (MOE); d = 2'-deoxy (DNA)",
  "data": [
    {"substance": "ISIS 141923: CCTTCCCTGAAGGTTCCTCC, 5-10-5 MOE gapmer, a control oligonucleotide which has no known murine target (sugars from the 5' end e5 d10 e5, backbone and methylation of C not given here) [reference compound]", "values": [
      {"measurement": "Percent inhibition of CETP activity", "setting": "CETP activity; Dose 50 mg/kg/wk", "result": 2, "unit": "%"},
      {"measurement": "Percent inhibition of liver mRNA expression, SR-B1", "setting": "SR-B1; Dose 50 mg/kg/wk", "result": "+37%"}
    ]},
    {"substance": "ISIS 349511: 5-10-5 MOE gapmer CCCGACCTCCTTGGAGACTT (sugars from the 5' end e5 d10 e5, backbone and methylation of C not given here)", "values": [
      {"measurement": "Percent inhibition of liver CETP mRNA expression", "setting": "CETP mRNA", "result": 70, "unit": "%"},
      {"measurement": "% inhibition", "setting": "human CETP mRNA", "result": 66, "unit": "%"},
      {"measurement": "Percent inhibition of plasma CETP protein levels", "setting": "CETP protein; Cholesterol chow, Week 3", "result": 89, "unit": "%"},
      {"measurement": "Percent inhibition of plasma CETP protein levels", "setting": "CETP protein; Cholesterol chow, Week 6", "result": 85, "unit": "%"},
      {"measurement": "Percent inhibition of plasma CETP protein levels", "setting": "CETP protein; Normal chow, Week 3", "result": 81, "unit": "%"},
      {"measurement": "Percent inhibition of plasma CETP protein levels", "setting": "CETP protein; Normal chow, Week 6", "result": 85, "unit": "%"}
    ]},
    {"substance": "ISIS 349517: 5-10-5 MOE gapmer CAGCACTTTAATGCCAGTGG (sugars from the 5' end e5 d10 e5, backbone and methylation of C not given here)", "values": [
      {"measurement": "Percent inhibition of CETP activity", "setting": "CETP activity; Dose 1.5 mg/kg/wk", "result": 33, "unit": "%"},
      {"measurement": "Percent inhibition of CETP activity", "setting": "CETP activity; Dose 5 mg/kg/wk", "result": 59, "unit": "%"},
      {"measurement": "Percent inhibition of CETP activity", "setting": "CETP activity; Dose 15 mg/kg/wk", "result": 76, "unit": "%"},
      {"measurement": "Percent inhibition of CETP activity", "setting": "CETP activity; Dose 50 mg/kg/wk", "result": 77, "unit": "%"},
      {"measurement": "SR-B1 levels (liver mRNA)", "setting": "SR-B1; huCETP transgenic mice, Western diet", "result": "increase"},
      {"measurement": "Percent inhibition of liver mRNA expression, SR-B1", "setting": "SR-B1; Dose 1.5 mg/kg/wk", "result": "+33%"},
      {"measurement": "Percent inhibition of liver mRNA expression, SR-B1", "setting": "SR-B1; Dose 5 mg/kg/wk", "result": "+34%"},
      {"measurement": "Percent inhibition of liver mRNA expression, SR-B1", "setting": "SR-B1; Dose 15 mg/kg/wk", "result": "+50%"},
      {"measurement": "Percent inhibition of liver mRNA expression, SR-B1", "setting": "SR-B1; Dose 50 mg/kg/wk", "result": "+42%"},
      {"measurement": "Percent inhibition of liver CETP mRNA expression", "setting": "CETP mRNA", "result": 86, "unit": "%"},
      {"measurement": "% inhibition", "setting": "human CETP mRNA", "result": 100, "unit": "%"},
      {"measurement": "Percent inhibition of plasma CETP protein levels", "setting": "CETP protein; Cholesterol chow, Week 3", "result": 97, "unit": "%"},
      {"measurement": "Percent inhibition of plasma CETP protein levels", "setting": "CETP protein; Cholesterol chow, Week 6", "result": 96, "unit": "%"},
      {"measurement": "Percent inhibition of plasma CETP protein levels", "setting": "CETP protein; Normal chow, Week 3", "result": 95, "unit": "%"},
      {"measurement": "Percent inhibition of plasma CETP protein levels", "setting": "CETP protein; Normal chow, Week 6", "result": 91, "unit": "%"}
    ]}
  ]
}
